The values below come from patent publication US10703717B2, “Water-soluble isatin derivative, and manufacturing method and application thereof” (TIANJIN UNIVERSITY OF SCIENCE & TECHNOLOGY, priority 2016, dated 2020).

Each structure is given as a SMILES string.

One series is described as follows: Water solubility. The series is classed as physicochemical. To be noted: for water solubility, in words: summary of table 1.
A further series relates to K562 cells. The experiment in a line: In-vitro anti-tumor activity, MTT assay, human leukemia K562 cells. It is filed as cell-based. The settings on record: 48 h. How it is done: (§1) Anti-Tumor Activity Determination Method
(§2) Preparation of PBS buffer: Sodium chloride 8 g, potassium chloride 0.2 g, disodium hydrogen phosphate dodecahydrate 2.9 g, potassium dihydrogen phosphate 0.2 g and purified water 800 mL were placed into a 1000 mL conical flask, the mixture was stirred and dissolved to a volume of 1000 mL. After autoclaving, PBS buffer was stored in a refrigerator at 4° C.
(§3) Preparation of MTT solution: 0.5 g MTT dry powder was dissolved in 100 mL PBS buffer. After sterilizing by filtration through a […] filter, it was stored in a refrigerator at −12° C.
(§4) Three kinds of tumor cells were used in the antitumor activity assay of the present invention: human liver cancer cells (HepG2), human leukemia cells (K562) and human colon cancer cells (HCT116).
Activity test using human leukemia K562 cells
The human leukemia cells (K562) were grown in RPMI1640 medium supplemented with 10% fetal bovine serum, 1% penicillin/streptomycin and were cultured in an incubator of 5% CO2 at 37° C.
The method comprises the following steps:
(1) After counting the cells with a hemocytometer, dilute it to a density of 5×10^4 cells/mL with RPMI1640 medium;
(2) 100 μl cell suspension was added in each well of 96-well plates and incubated at 37° C. for 2 h;
(§5) (3) The compound to be tested was diluted to five concentrations: 2 mM, 200 μM, 20 μM, 2 μM, 0.2 μM. Then, 0.5 μL compound of different concentrations was added to the well and incubated at 37° C. for another 48 h;
(§6) (4) MTT (5 mg/ml) was added to each well and the plate was further incubated for 4 h at 37° C.;
(5) Dissolving the cells with DMSO, and the OD values were measured at 570 nm and 630 nm by a microplate reader;
(6) Process the data by calculating the IC50 value based on the OD values.
In general terms: Tetrazolium dyes change colour on reduction, which living cells bring about.

The next series deals with HepG2 cells. The experiment in a line: In-vitro anti-tumor activity, MTT assay, human liver cancer HepG2 cells. To be noted: 48 h. The series is classed as cell-based. How it is done:
as §1
Preparation of low glucose DMEM medium: MEM medium (Hyclone) was purchased with low glucose, 500 mL per bottle, 10% fetal bovine serum and 1% streptomycin solution were added in it. That is, 50 mL of fetal bovine serum and 5 mL of streptomycin were added to each flask of the medium. The preparation of the medium was carried out in an ultra-clean workbench and stored in a refrigerator at 4° C.
as §2, §3, §4
Activity Test Using Human Liver Cancer HepG2 Cells
The human liver cancer cells (HepG2) were grown in DMEM medium supplemented with 10% fetal bovine serum, 1% penicillin/streptomycin and were cultured in an incubator of 5% CO2 at 37° C. The method comprises the following steps:
(1) After counting the cells with a hemocytometer, dilute it to a density of 5×10^4 cells/mL with low glucose DMEM medium;
(§7) (2) 100 μl cell suspension was added in each well of 96-well plates and incubated at 37° C. for 24 h;
as §5, §6
(§8) (5) Dissolving the cells with DMSO, and the OD values were measured at 490 nm and 630 nm by a microplate reader; […]

Another series has as its system HCT116 cells. The experiment in a line: In-vitro anti-tumor activity, MTT assay, human colon cancer HCT116 cells. The settings on record: HCT-116, 48 h. It is filed as cell-based. How it is done: as §1
Preparation of DMEM/F-12 medium: MEM/F-12 medium (Hyclone) was purchased, 500 mL per bottle, 10% fetal bovine serum and 1% streptomycin solution were added in it. That is, 50 mL of fetal bovine serum and 5 mL of streptomycin were added to each flask of the medium. The preparation of the medium was carried out in an ultra-clean workbench and stored in a refrigerator at 4° C.
as §2, §3, §4
Activity test using human colon cancer HCT116 cells
The human colon cancer cells (HCT116) were grown in DMEM/F-12 medium supplemented with 10% fetal bovine serum, 1% penicillin/streptomycin and were cultured in an incubator of 5% CO2 at 37° C. The method comprises the following steps:
(1) After counting the cells with a hemocytometer, dilute it to a density of 5×10^4 cells/mL with DMEM/F-12 medium;
as §7
(3) The compound to be tested was diluted to five concentrations: 2 mM, 200 μM, 20 μM, 2 μM, 0.2 μM. Then, 0.5 μL compound of different concentrations was added to each well and incubated at 37° C. for another 48 h;
(4) MTT (5 mg/ml) was added to the well and the plate was further incubated for 4 h at 37° C.;
as §8

In series [1] the test system is tumor cells (HepG2, K562, HCT116). The experiment in a line: In-vitro anti-tumor activity, summary in words over the three tumor cell lines. The series is classed as cell-based, human. To be noted: summary of table 1; for cytotoxic / anti-tumor activity, in words: compared with precursor/parent compound.
From the text: as §1, §4

The term IC50 denotes the concentration needed to halve the response being measured. Low readings indicate inhibition by little substance, high ones a need for much substance. Consider `CC[C@@]1(O)C(=O)OCc2c1cc1n(c2=O)Cc2cc3ccccc3nc2-1` [CPT, camptothecin, reference compound], for which, in “Water solubility”, the Water solubility entry was “insoluble”. Moreover, the IC50 in the series on K562 cells, in the series on HepG2 cells and with HCT116 cells was 100 to 1000 nM in each case.
Compound `COc1ccc(CN2C(=O)C(=O)c3cc(-c4ccc(O)c(CN(C)C)c4)ccc32)cc1` [Compound 1] showed a Water solubility in “Water solubility” greater than 10 g/100 g. In “Water solubility”, the “water solubility, in words” value is recorded as “obviously improved”. For the same compound, the IC50 in the series on K562 cells, with HepG2 cells and in the series on HCT116 cells was 1000 to 10000 nM throughout. In addition, in series [1], the “cytotoxic / anti-tumor activity, in words” value is “still retains certain cytotoxic activity”.
As for `COC(=O)/C=C/c1ccc2c(c1)C(=O)C(=O)N2Cc1ccc(O)c(CN(C)C)c1` [Compound 2], in the series “Water solubility”, the Water solubility was greater than 10 g/100 g and the “water solubility, in words” value is “obviously improved”. For the same compound, the IC50 with K562 cells is less than 10 nM. For the same compound, the IC50 in the series on HepG2 cells was in the range of 1000 to 10000 nM. This compound displayed an IC50 with HCT116 cells of less than 10 nM. Besides, in series [1], the “activity compared with positive reference substance camptothecin” value is listed as “superior” and the “cytotoxic / anti-tumor activity, in words” value was “greatly improved”.
